Values quoted from earlier work as cited in patent US20060182816A1, “Hypobromous acid system” (priority 2005, published 2006).
Read-outs that look alike come from different tables or passages of the source.

Columns and labels:
[1] = not given; remark: listed apart in the source

SMILES: OCl [HOCl, hypochlorous acid]
- pKa: about 7.53

SMILES: OBr [Hypobromite ion]
- % bromine as OBr− ([1]; pH 6.0): 0.0%
- % bromine as OBr− ([1]; pH 6.5): 0.6%
- % bromine as OBr− ([1]; pH 7.0): 2%
- % bromine as OBr− ([1]; pH 7.5): 6%
- % bromine as OBr− ([1]; pH 8.0): 17%
- % bromine as OBr− ([1]; pH 8.5): 43%

SMILES: OBr [Hypobromous acid]
- % bromine as HOBr ([1]; pH 6.0): 100%
- % bromine as HOBr ([1]; pH 6.5): 99.4%
- % bromine as HOBr ([1]; pH 7.0): 98%
- % bromine as HOBr ([1]; pH 7.5): 94%
- % bromine as HOBr ([1]; pH 8.0): 83%
- % bromine as HOBr ([1]; pH 8.5): 57%
